Legend:
Format in all cases: in vivo
[1] = system: Polygonum convolvulus (POLCO); experiment: Post-emergence herbicidal action, greenhouse pot trial; details: Fallopia convolvulus, 504 h, visual rating after about 3 weeks
Procedure, shortened: (§1)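 Visual % activity versus untreated controls (100% = plants died, 0% = like control), scored about 3 weeks post-spray. Plants grown in sandy loam pots under greenhouse conditions were treated at the one-leaf stage with WP or EC formulations at 320 g/ha or lower.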

[2] = system: Abutilon theophrasti (ABUTH); experiment: as above; details: Abutilon theophrasti, 504 h, 320 g/ha, visual rating after about 3 weeks, read-out: Post-emergence effect at 320 g/ha against ABUTH in %
Procedure, shortened: as §1

[3] = system: Matricaria inodora (MATIN); experiment: as above; details: Tripleurospermum inodorum, 504 h, visual rating after about 3 weeks
Procedure, shortened: as §1

Viola tricolor (VIOTR) = experiment: as above; details: Viola tricolor, 504 h, 320 g/ha, read-out: Post-emergence effect against VIOTR
Procedure, shortened: as §1

[4] = system: Pharbitis purpurea (PHBPU); experiment: as above; details: Ipomoea purpurea, 504 h, 320 g/ha, visual rating after about 3 weeks, read-out: Post-emergence effect at 320 g/ha against PHBPU in %
Procedure, shortened: as §1

[5] = system: Echinochloa crus-galli (ECHCG); experiment: as above; details: Echinochloa crus-galli, 504 h, visual rating after about 3 weeks
Procedure, shortened: as §1

Setaria viridis (SETVI) = experiment: as above; details: Setaria viridis, 504 h, 320 g/ha, visual rating after about 3 weeks, read-out: Post-emergence effect at 320 g/ha against SETVI in %
Procedure, shortened: as §1

[6] = system: Alopecurus myosuroides (ALOMY); experiment: as above; details: Alopecurus myosuroides, 504 h, 320 g/ha, visual rating after about 3 weeks, read-out: Post-emergence effect at 320 g/ha against ALOMY in %
Procedure, shortened: as §1

Lolium rigidum (LOLRI) = experiment: as above; details: Lolium rigidum, 504 h, 320 g/ha, visual rating after about 3 weeks, read-out: Post-emergence effect at 320 g/ha against LOLRI in %
Procedure, shortened: as §1

[7] = system: Polygonum convolvulus (POLCO); experiment: Pre-emergence herbicidal effect, greenhouse pot trial; details: visual rating after about 3 weeks vs untreated controls
Text: (§2) Seeds of monocotyledonous and dicotyledonous weed plants and crop plants are placed in plastic or organic planting pots and covered with soil. The compounds of the invention, formulated in the form of wettable powders (WP) or as emulsion concentrates (EC), are then applied to the surface of the covering soil as aqueous suspension or emulsion with addition of 0.5% additive at a water application rate equivalent to 600 1/ha. After the treatment, the pots are placed in a greenhouse and kept under good growth conditions for the trial plants. After about 3 weeks, the effect of the preparations is rated visually in comparison with untreated controls as percentages. For example, 100% activity=the plants have died, 0% activity=like control plants.
(§3) Tables A1 and A2 below show the effects of selected compounds of the general formula (I) according to Table 1 on various harmful plants and at an application rate corresponding to 320 g/ha or lower, which were obtained by the trial procedure specified above. The appendices “a” and “b” give differentiation by dosage used with otherwise the same harmful plants tested.
(§4) As shown by the results from Tables A1 and A2, compounds of the invention have good pre-emergence herbicidal efficacy against harmful plants, for example against harmful plants such as Amaranthus retroflexus (AMARE) and Polygonum convolvulus (POLCO).

[8] = system: Amaranthus retroflexus (AMARE); experiment: as above; details: visual rating after about 3 weeks vs untreated controls
Text: as §2, §3, §4

Glycine max (GLXMA) = experiment: Post-emergence crop plant compatibility, greenhouse pot trial; details: in comparison to untreated controls
Description: (§5) Seeds of monocotyledonous and dicotyledonous weeds and crop plants are placed in sandy loam in plastic or organic planting pots, covered with soil and cultivated in a greenhouse under controlled growth conditions. 2 to 3 weeks after sowing, the trial plants are treated at the one-leaf stage. The compounds of the invention, formulated in the form of wettable powders (WP) or as emulsion concentrates (EC), are then sprayed onto the green parts of the plants as aqueous suspension or emulsion with addition of 0.5% additive at a water application rate equivalent to 600 l/ha. After about 3 weeks of keeping the trial plants in the greenhouse under optimum growth conditions, the effect of the preparations is rated visually in comparison to untreated controls. For example, 100% activity=the plants have died, 0% activity=like control plants.
(§6) The observed effects on selected crop plants are reported here in comparison to the untreated controls (values in %). The appendices “a”, “b” and “c” give differentiation by dosage used with otherwise the same useful plants tested.
(§7) As shown by results from Tables B1 to B19, inventive compounds of the general formula (I) in the case of post-emergence treatment have good herbicidal efficacy against harmful plants, for example Abutilon theophrasti (ABUTH), Alopecurus myosuroides (ALOMY), Amaranthus retroflexus (AMARE), Avena fatua (AVEFA), Digitaria sanguinalis (DIGSA), Echinochloa crus-galli (ECHCG), Bassia scoparia (KCHSC), Lolium rigidum (LOLRI), Matricaria inodora (MATIN), Pharbitis purpurea (PHBPU), Polygonum convolvulus (POLCO), Setaria viridis (SETVI), Veronica persica (VERPE) and Viola tricolor (VIOTR) at an application rate of 320 g of active substance or less per hectare, and good crop plant compatibility in the case of organisms such as Oryza sativa (ORYSA), Zea mays (ZEAMX), Brassica napus (BRSNW), Glycine max (GLXMA) and Triticum aestivum (TRZAS) at an application rate of 320 g or less per hectare.

Brassica napus (BRSNW) = experiment: as above; details: 20 g/ha, in comparison to untreated controls
Description: as §5, §6, §7

Zea mays (ZEAMX) = experiment: as above; details: in comparison to untreated controls
Description: as §5, §6, §7

[9] = system: Triticum aestivum (TRZAS); experiment: as above; details: post-emergence; for Post-emergence effect against TRZAS (crop plant compatibility): in comparison to untreated controls; for Post-emergence effect at 320 g/ha against TRZAS in %: crop plant compatibility (effect on crop vs untreated controls)
Description: as §5, §6, §7

Oryza sativa (ORYSA) = experiment: as above; details: in comparison to untreated controls
Description: as §5, §6, §7

Structure (SMILES): CCOC(=O)C(Oc1nn(-c2ccccc2F)c(-c2ccc(F)nc2)c1Br)SC (centres unmarked) [Example I-01]
- pest or weed control at 80 g/ha ([1]; 80 g/ha, read-out: Post-emergence effect at 80 g/ha against POLCO in %): 80%
- pest or weed control at 320 g/ha ([1]; 320 g/ha, read-out: Post-emergence effect at 320 g/ha against POLCO in %): 80%
- pest or weed control at 320 g/ha [2]: 80%
- pest or weed control at 80 g/ha ([3]; 80 g/ha, read-out: Post-emergence effect at 80 g/ha against MATIN in %): 80%
- pest or weed control at 320 g/ha ([3]; 320 g/ha, read-out: Post-emergence effect at 320 g/ha against MATIN in %): 80%
- pest or weed control at 320 g/ha (Viola tricolor (VIOTR)): 80%
- pest or weed control at 320 g/ha [4]: 90%
- pest or weed control at 80 g/ha ([5]; 80 g/ha, read-out: Post-emergence effect at 80 g/ha against ECHCG in %): 80%
- pest or weed control at 320 g/ha ([5]; 320 g/ha, read-out: Post-emergence effect at 320 g/ha against ECHCG in %): 80%
- pest or weed control at 320 g/ha (Setaria viridis (SETVI)): 80%
- pest or weed control at 320 g/ha [6]: 80%
- pest or weed control at 320 g/ha (Lolium rigidum (LOLRI)): 80%
- Pre-emergence effect at 80 g/ha against POLCO in % ([7]; 80 g/ha): 80%
- Pre-emergence effect at 320 g/ha against POLCO in % ([7]; 320 g/ha): 80%
- Pre-emergence effect at 80 g/ha against AMARE in % ([8]; 80 g/ha): 90%
- Pre-emergence effect at 320 g/ha against AMARE in % ([8]; 320 g/ha): 100%

Structure (SMILES): CCOC(=O)C(Oc1nn(-c2ccc(Cl)cc2F)c(-c2ccc(F)cc2F)c1Br)SC (centres unmarked) [Example I-12]
- Post-emergence effect against GLXMA (crop plant compatibility) (Glycine max (GLXMA); 20 g/ha): 0%
- Post-emergence effect against GLXMA (crop plant compatibility) (Glycine max (GLXMA); 80 g/ha): 0%
- Post-emergence effect against GLXMA (crop plant compatibility) (Glycine max (GLXMA); 320 g/ha): 0%
- Post-emergence effect against BRSNW (crop plant compatibility) (Brassica napus (BRSNW)): 0%
- Post-emergence effect against ZEAMX (crop plant compatibility) (Zea mays (ZEAMX); 20 g/ha): 0%
- Post-emergence effect against ZEAMX (crop plant compatibility) (Zea mays (ZEAMX); 80 g/ha): 0%
- Post-emergence effect against ZEAMX (crop plant compatibility) (Zea mays (ZEAMX); 320 g/ha): 0%
- Post-emergence effect against TRZAS (crop plant compatibility) ([9]; 20 g/ha): 0%
- Post-emergence effect against TRZAS (crop plant compatibility) ([9]; 80 g/ha): 0%
- Post-emergence effect at 320 g/ha against TRZAS in % [9]: 0%
- Post-emergence effect against ORYSA (crop plant compatibility) (Oryza sativa (ORYSA); 20 g/ha): 0%
- Post-emergence effect against ORYSA (crop plant compatibility) (Oryza sativa (ORYSA); 80 g/ha): 0%
- Post-emergence effect against ORYSA (crop plant compatibility) (Oryza sativa (ORYSA); 320 g/ha): 0%

Structure (SMILES): CCOC(=O)C(Oc1nn(-c2ncccc2F)c(-c2ccc(Cl)cc2)c1Br)SC (centres unmarked) [Example I-15]
- Post-emergence effect against GLXMA (crop plant compatibility) (Glycine max (GLXMA); 20 g/ha): 0%
- Post-emergence effect against GLXMA (crop plant compatibility) (Glycine max (GLXMA); 80 g/ha): 10%
- Post-emergence effect against BRSNW (crop plant compatibility) (Brassica napus (BRSNW)): 0%
- Post-emergence effect against ZEAMX (crop plant compatibility) (Zea mays (ZEAMX); 20 g/ha): 0%
- Post-emergence effect against ZEAMX (crop plant compatibility) (Zea mays (ZEAMX); 80 g/ha): 0%
- Post-emergence effect against ZEAMX (crop plant compatibility) (Zea mays (ZEAMX); 320 g/ha): 10%
- Post-emergence effect against TRZAS (crop plant compatibility) ([9]; 20 g/ha): 0%
- Post-emergence effect against TRZAS (crop plant compatibility) ([9]; 80 g/ha): 0%
- Post-emergence effect at 320 g/ha against TRZAS in % [9]: 10%
- Post-emergence effect against ORYSA (crop plant compatibility) (Oryza sativa (ORYSA); 20 g/ha): 0%
- Post-emergence effect against ORYSA (crop plant compatibility) (Oryza sativa (ORYSA); 80 g/ha): 0%
- Post-emergence effect against ORYSA (crop plant compatibility) (Oryza sativa (ORYSA); 320 g/ha): 0%

— patent US20250026724A1, “(1,4,5-TRISUBSTITUTED 1H-PYRAZOL-3-YL)OXY-2-ALKYLTHIOALKYL ACIDS AND -ALKYL ACID DERIVATIVES, SALTS THEREOF AND USE THEREOF AS ACTIVE HERBICIDAL INGREDIENTS” (BAYER AKTIENGESELLSCHAFT, priority 2021, published 2025)
